What was measured:
Experiment in all cases: OncoPanel cytotoxicity assay
Type in all cases: cell-based
ES-2 = conditions: Homo sapiens, 72 hour incubation
Experimental: (§1) Cells were grown in RPMI 1640, 10% FBS, 2 mM L-alanyl-L-Glutamine, 1 mM Na Pyruvate, or a special medium in a humidified atmosphere of 5% CO2 at 37° C. Cells were seeded into 384-well plates and incubated in a humidified atmosphere of 5% CO2 at 37° C. Test compounds were added 24 hours post cell seeding. At the same time, a time zero, untreated cell plate was generated as a control. After a 72 hour incubation period, cells were fixed and stained with nuclear dye to allow visualization of nuclei.
(§2) Compounds were serially diluted 3.16-fold and assayed over 10 concentrations of inhibitor in a final assay concentration of 0.1% DMSO from the highest test concentration specified in the sample information chapter. Automated fluorescence microscopy was carried out using a GE Healthcare InCell Analyzer 1000, and images were collected with a 4× objective. Twelve bit tiff images were acquired using the InCell Analyzer 1000 3.2 and analyzed with Developer Toolbox 1.6 software.
(§3) Cell proliferation was measured by the signal intensity of the incorporated nuclear dye. The cell proliferation assay output is referred to as the relative cell count. To determine the cell proliferation end point, the cell proliferation data output is transformed to percent of control (POC) using the following formula: […]
(§4) Relative cell count IC50 (IC50) is the test compound's concentration that produces 50% of the cell proliferation inhibitory response or 50% cytotoxicity level. IC50 values were calculated using nonlinear regression to fit data to a sigmoidal 4 point, 4 parameter One-Site dose response model, where: y (fit)=A+[(B−A)/(1+((C/x)̂D))]. Curve-fitting, IC50 calculations and report generation were performed using a custom data reduction engine MathIQ based software (AIM). […] In these cases, the IC50 values were expressed as 40 μM and 10 μM, respectively (Table 2).

MCF7 = conditions: Homo sapiens, 72 hour incubation
Experimental: as §1, §2, §3, §4

J-RT3-T3-5 = conditions: Homo sapiens, 72 hour incubation
Experimental: as §1, §2, §3, §4

CAMA-1 = conditions: Homo sapiens, 72 hour incubation
Experimental: as §1, §2, §3, §4

HMCB = conditions: Homo sapiens, 72 hour incubation
Experimental: as §1, §2, §3, §4

CEM-C1 = conditions: Homo sapiens, 72 hour incubation
Experimental: as §1, §2, §3, §4

SNB-19 = conditions: Homo sapiens, 72 hour incubation
Experimental: as §1, §2, §3, §4

BC-1 = conditions: Homo sapiens, BC1, 72 hour incubation
Experimental: as §1, §2, §3, §4

NALM-6 = conditions: Homo sapiens, 72 hour incubation
Experimental: as §1, §2, §3, §4

H4 = conditions: Homo sapiens, 72 hour incubation
Experimental: as §1, §2, §3, §4

CML-T1 = conditions: Homo sapiens, 72 hour incubation
Experimental: as §1, §2, §3, §4

MT-3 = conditions: Homo sapiens, 72 hour incubation
Experimental: as §1, §2, §3, §4

SNU-1 = conditions: Homo sapiens, SNU1, 72 hour incubation
Experimental: as §1, §2, §3, §4

Caki-2 = conditions: Homo sapiens, 72 hour incubation
Experimental: as §1, §2, §3, §4

NCI-H520 = conditions: Homo sapiens, 72 hour incubation
Experimental: as §1, §2, §3, §4

Colo 201 = conditions: Homo sapiens, 72 hour incubation
Experimental: as §1, §2, §3, §4

HT1376 = conditions: Homo sapiens, HT-1376, 72 hour incubation
Experimental: as §1, §2, §3, §4

SK-MEL-1 = conditions: Homo sapiens, 72 hour incubation
Experimental: as §1, §2, §3, §4

SK-N-AS = conditions: Homo sapiens, 72 hour incubation
Experimental: as §1, §2, §3, §4

DB = conditions: Homo sapiens, 72 hour incubation
Experimental: as §1, §2, §3, §4

SU.86.86 = conditions: Homo sapiens, 72 hour incubation
Experimental: as §1, §2, §3, §4

CAL-62 = conditions: Homo sapiens, 72 hour incubation
Experimental: as §1, §2, §3, §4

SKO-007 = conditions: Homo sapiens, 72 hour incubation
Experimental: as §1, §2, §3, §4

JEG-3 = conditions: Homo sapiens, 72 hour incubation
Experimental: as §1, §2, §3, §4

JAR = conditions: Homo sapiens, 72 hour incubation
Experimental: as §1, §2, §3, §4

BxPC-3 = conditions: Homo sapiens, 72 hour incubation
Experimental: as §1, §2, §3, §4

SK-MEL-3 = conditions: Homo sapiens, SK-MEL3, 72 hour incubation
Experimental: as §1, §2, §3, §4

SR = conditions: Homo sapiens, 72 hour incubation
Experimental: as §1, §2, §3, §4

U-138MG = conditions: Homo sapiens, U138-MG, 72 hour incubation
Experimental: as §1, §2, §3, §4

KPL-1 = conditions: Homo sapiens, 72 hour incubation
Experimental: as §1, §2, §3, §4

SCC-4 = conditions: Homo sapiens, 72 hour incubation
Experimental: as §1, §2, §3, §4

U-87 MG = conditions: Homo sapiens, 72 hour incubation
Experimental: as §1, §2, §3, §4

MDA-MB-436 = conditions: Homo sapiens, 72 hour incubation
Experimental: as §1, §2, §3, §4

DMS53 = conditions: Homo sapiens, DMS-53, 72 hour incubation
Experimental: as §1, §2, §3, §4

ChaGoK1 = conditions: Homo sapiens, ChaGo-K-1, 72 hour incubation
Experimental: as §1, §2, §3, §4

RPMI 8226 = conditions: Homo sapiens, 72 hour incubation
Experimental: as §1, §2, §3, §4

A498 = conditions: Homo sapiens, 72 hour incubation
Experimental: as §1, §2, §3, §4

22Rv1 = conditions: Homo sapiens, 72 hour incubation
Experimental: as §1, §2, §3, §4

SW948 = conditions: Homo sapiens, 72 hour incubation
Experimental: as §1, §2, §3, §4

CC[C@@H]1CNC2(CC2)CN1C(=O)[C@@H]1C[C@@H](F)CN1C(=O)C1=C(C(C)C)N2C(=N[C@@](C)(c3ccc(Cl)nc3)[C@H]2c2ccc(Cl)c(F)c2)S1 [Compound A, [(5R,6S)-5-(4-Chloro-3-fluorophenyl)-6-(6-chloropyridin-3-yl)-6-methyl-3-(propan-2-yl)-5,6-dihydroimidazo[2,1-b][1,3]thiazol-2-yl][(2S,4R)-2-{[(6R)-6-ethyl-4,7-diazaspiro[2.5]oct-7-yl]carbonyl}-4-fluoropyrrolidin-1-yl]methanone]
IC50 (ES-2): 14500 nM
IC50 (MCF7): 661 nM
IC50 (J-RT3-T3-5): > 40000 nM
IC50 (CAMA-1): > 40000 nM
IC50 (HMCB): > 40000 nM
IC50 (CEM-C1): 33600 nM
IC50 (SNB-19): > 40000 nM
IC50 (BC-1): 464 nM
IC50 (NALM-6): 658 nM
IC50 (H4): 172 nM
IC50 (CML-T1): 2380 nM
IC50 (MT-3): 1130 nM
IC50 (SNU-1): 412 nM
IC50 (Caki-2): 472 nM
IC50 (NCI-H520): > 40000 nM
IC50 (Colo 201): 34600 nM
IC50 (HT1376): 38900 nM
IC50 (SK-MEL-1): 207 nM
IC50 (SK-N-AS): > 40000 nM
IC50 (DB): > 40000 nM
IC50 (SU.86.86): > 40000 nM
IC50 (CAL-62): > 40000 nM
IC50 (SKO-007): > 40000 nM
IC50 (JEG-3): 3620 nM
IC50 (JAR): 549 nM
IC50 (BxPC-3): > 40000 nM
IC50 (SK-MEL-3): > 40000 nM
IC50 (SR): 257 nM
IC50 (U-138MG): > 40000 nM
IC50 (KPL-1): 455 nM
IC50 (SCC-4): > 40000 nM
IC50 (U-87 MG): 261 nM
IC50 (MDA-MB-436): > 40000 nM
IC50 (DMS53): 38400 nM
IC50 (ChaGoK1): > 40000 nM
IC50 (RPMI 8226): > 40000 nM
IC50 (A498): 1710 nM
IC50 (22Rv1): 1310 nM
IC50 (SW948): > 40000 nM

CC1(C)CCC2(CC1)N[C@@H](C(=O)N[C@@H]1CC[C@@H](C(N)=O)OC1)[C@H](c1ccnc(Cl)c1F)[C@]21C(=O)Nc2cc(Cl)ccc21 [Compound B, (3′R,4′S,5′R)—N-[(3R,6S)-6-carbamoyltetrahydro-2H-pyran-3-yl]-6″-chloro-4′-(2-chloro-3-fluoropyridin-4-yl)-4,4-dimethyl-2″-oxo-1″,2″-dihydrodispiro[cyclohexane-1,2′-pyrrolidine-3′,3″-indole]-5′-carboxamide]
IC50 (ES-2): 6300 nM
IC50 (MCF7): 83.3 nM
IC50 (J-RT3-T3-5): > 10000 nM
IC50 (CAMA-1): > 10000 nM
IC50 (HMCB): 5490 nM
IC50 (CEM-C1): 9370 nM
IC50 (SNB-19): > 10000 nM
IC50 (BC-1): 74 nM
IC50 (NALM-6): 65 nM
IC50 (H4): 24 nM
IC50 (CML-T1): 59.7 nM
IC50 (MT-3): 164 nM
IC50 (SNU-1): 135 nM
IC50 (Caki-2): 82.1 nM
IC50 (NCI-H520): > 10000 nM
IC50 (Colo 201): 7330 nM
IC50 (HT1376): > 10000 nM
IC50 (SK-MEL-1): 29.3 nM
IC50 (SK-N-AS): 8290 nM
IC50 (DB): 5980 nM
IC50 (SU.86.86): 8860 nM
IC50 (CAL-62): > 10000 nM
IC50 (SKO-007): 8640 nM
IC50 (JEG-3): 249 nM
IC50 (JAR): 86.1 nM
IC50 (BxPC-3): > 10000 nM
IC50 (SK-MEL-3): > 10000 nM
IC50 (SR): 26.2 nM
IC50 (U-138MG): > 10000 nM
IC50 (KPL-1): 31 nM
IC50 (SCC-4): > 10000 nM
IC50 (U-87 MG): 37.6 nM
IC50 (MDA-MB-436): > 10000 nM
IC50 (DMS53): > 10000 nM
IC50 (ChaGoK1): > 10000 nM
IC50 (RPMI 8226): 65 nM
IC50 (A498): 119 nM
IC50 (22Rv1): 109 nM
IC50 (SW948): > 10000 nM

Reference: patent US20160333419A1, “GENE SIGNATURES ASSOCIATED WITH SENSITIVITY TO MDM2 INHIBITORS” (DAIICHI SANKYO COMPANY, LIMITED, priority 2014, published 2016)
